# Where two headings read alike, the source gives them in different places. Numbered stars: 1 amine (or outer) side, 2 acyl side, 3 side chain; on linkers, the order of the positions; unused ones are H or OH. Bridge positions count the residues as written; N and C are the ends. Ends that are not written are not given here. Peptide text beside a SMILES is read from it. X1 = O=C(NC[*:1])NC[*:2]
# Tests used:
# BCG bacteria [1] = assay: microbe, parasite or virus in culture; details: Mycobacterium tuberculosis variant bovis BCG
# trypsin [2] = details: trypsin 5 μg/mL
# Experimental: (§1) A 4 mg/mL SAH1 solution and a 10 μg/mL trypsin solution each were prepared with PBS (pH 7.4) as a solvent. 250 μL of the trypsin solution was added to 250 μL of the SAH1 solution, and a reaction was conducted in an ice bath. A sample was collected at different time points after the reaction to determine the decomposition of SAH1 by RP-HPLC. RP-HPLC conditions were as follows: A C18 reversed-phase Bio-Rad analytical column was adopted: 250× 4 mm, a pore size: 30 nm, and a particle size: 7 μm. At 0 min to 40 min, linear gradient elution was conducted with 10% to 90% acetonitrile aqueous solutions, with 0.1% TFA (w/v) in both acetonitrile and water. A flow rate was 1.2 mL/min.
# (§2) In addition, with the same method as above, the SAH1 aqueous solution was replaced with a 4 mg/mL BMAP-18 aqueous solution to detect the hydrolysis of BMAP-18 by trypsin.
# trypsin [3] = assay: in vitro; details: isolated enzyme trypsin, pH 7.4
# Experimental: as §1, §2
# BCG = assay type: cell-based, attenuated Mycobacterium bovis; details: treated as in Example 5
# BCG bacteria [4] = test system: BCG bacteria
# in vitro = details: mouse
# Experimental: A positive control well was set. The positive control well was the same as test wells except that the polypeptide SAH1 aqueous solution was replaced with a DMEM complete medium. After the incubation, 10 μL of a CCK-8 reaction solution (Beijing Solarbio) was added to each well, and the plate was further incubated at 37° C. for 2 h. Finally, the absorbance at 450 nm was detected with a microplate reader (Synersymx, Biotek). An OD value of the positive control well was BO, an OD value of a test well in which an antimicrobial peptide was added was B, and B/BO was called an inhibition rate. […] With a concentration of an antimicrobial peptide as an x-coordinate and an inhibition rate as a y-coordinate, a line chart was plotted, and IC50 was obtained through fitting.
Compound,MIC (BCG bacteria [1]) [µM],Peak area (RP-HPLC) (trypsin [2]; reaction time 0 min),Polypeptide residue (trypsin [2]; reaction time 0 min) [%],Peak area (RP-HPLC) (trypsin [2]; reaction time 15 min),Polypeptide residue (trypsin [2]; reaction time 15 min) [%],Peak area (RP-HPLC) (trypsin [2]; reaction time 30 min),Polypeptide residue (trypsin [2]; reaction time 30 min),"remaining at 0.25 h, 2 mg/mL (trypsin [3]) [%]",IC50 at 24 h (in vitro) [µM],other results
CC[C@@H](CO)NCCN[C@@H](CC)CO [Ethambutol],800,–,–,–,–,–,–,–,–,–
NNC(=O)c1ccncc1 [Isoniazid],800,–,–,–,–,–,–,–,–,–
CO[C@H]1/C=C/O[C@@]2(C)Oc3c(C)c(O)c4c(O)c(c(/C=N/N5CCN(C)CC5)c(O)c4c3C2=O)NC(=O)/C(C)=C\C=C\[C@H](C)[C@H](O)[C@@H](C)[C@@H](O)[C@@H](C)[C@H](OC(C)=O)[C@@H]1C [Rifampicin],400,–,–,–,–,–,–,–,–,–
CC(C)CC(NC(=O)C(CCCCN)NC(=O)C(CCCCN)NC(=O)C(Cc1ccccc1)NC(=O)C(CC(C)C)NC(=O)C(CCCCN)NC(=O)C(CCCCN)NC(=O)C(Cc1ccccc1)NC(=O)C(CCCCN)NC(=O)C1CSCNC(=O)NCSCC(NC(=O)C(Cc2ccccc2)NC(=O)C(CCCNC(=N)N)NC(=O)CN)C(=O)NC(CCCNC(=N)N)C(=O)NC(Cc2ccccc2)C(=O)NC(CCCNC(=N)N)C(=O)N1)C(=O)NC(CO)C(=O)O (stereo not drawn) [SAH1] (H-GRFCRFRCKFKKLFKKLS-OH; linker 4-8 via X1; configuration not given here),–,274.44,100,185.49,67.59,125.94,45.89%,67.6,300,"Peak area (RP-HPLC) (trypsin [2]; reaction time 60 min): 82.92; Polypeptide residue (trypsin [2]; reaction time 60 min): 30.21%; remaining at 1 h, 2 mg/mL (trypsin [3]): 30.2%; impact on cell membrane and intracellular structure of BCG (TEM) (BCG): largely missed, resulting in cavities and bacterial death; MIC (BCG bacteria [4]; BCG bacteria, 37° C. for 7 d, then resazurin 2 d, 7H9 medium): 12.5 µM"
"GRFKRFRKKFKKLFKKLS-OH [BMAP-18, G-R-F-K-R-F-R-K-K-F-K-K-L-F-K-K-L-S-OH]",–,254.43,100,45.20,17.76,0.02,almost completely hydrolyzed,17.8,150,"remaining at 0.5 h, 2 mg/mL (trypsin [3]): 0.01%; MIC (BCG bacteria [4]): 300 µM; antibacterial ability relative to SAH1 (BCG bacteria [4]): one twenty-fourth"

# Source: patent US12303545B2 (priority 2023, dated 2025)
